# Assay results published in patent publication US20090175845A1, “METHODS FOR IDENTIFYING COMPOUNDS THAT MODULATE PHB DOMAIN PROTEIN ACTIVITY AND COMPOSITIONS THEREOF” (THE TRUSTEES OF COLUMBIA UNIVERSITY IN THE CITY OF NEW YORK, priority 2005, published 2009).
# Legend:
# [1] = test system: mec-2 null worms expressing the mec-2(C140/174A) gene; test: C. elegans gentle touch sensitivity on plates with defined sterols; format: in vivo; settings: sterol substituted for cholesterol in the growth medium, FIG. 8C
# Method: C. elegans experiments. C. elegans strains were cultured at 20° C., assayed for touch sensitivity, and prepared for immunofluorescence as described previously [Zhang et al. (2004) Curr. Biol. 14:1888-96; Goodman et al. (2002) Nature 415:1039-42]. Briefly, C. elegans strains were cultured at 20° C. as described in the art. Strains were grown for at least three consecutive generations without starvation before carrying out the experiments described herein. Gentle touch and harsh touch sensitivity were assayed in blind tests by stimulating with an eyebrow hair or prodding with a platinum wire, respectively, as described in the art. To quantify the response, the number of responses in about 30 animals to 10 touches delivered alternately near the head and tail was recorded. Whole-mount immunofluorescence microscopy was carried out using methods known in the art.
# Media for growth on limiting or no cholesterol or on other sterols were prepared from chloroform-extracted reagents as described by Matyash et al. [(2004) PLoS Biol. 2: e280].
# First, a version of MEC-2 with reduced cholesterol binding was generating by mutating the predicted palmitoylation sites of the protein. Briefly, HEK293T cells were transfected with wild type MEC-2 or MEC-2(C140/174A) and labeled with [^3H]palmitic acid or [^3H]photoaffinity cholesterol. Equal expression of proteins in the lysates was confirmed on Western blots. […] Because touch sensitivity of wild-type animals was not affected by this limited cholesterol depletion, the effects observed with the palmitoylation mutant cannot be attributed to indirect effects on neuronal growth or development. Test compounds that target palmitoylation sites in PHB domain proteins can be used to modulate activity of such proteins, for example, by reducing their activity.
# Podocin = target: T1, Podocin (Mus musculus, UniProt Q91X05); test: Photoaffinity labeling with photoactivatable lipids in HEK 293T cells; format: binding; settings: Podocin expressed in HEK 293T cells, 16 hours, UV irradiation, autoradiography
# T1 construct: expressed in transfected cells; host or cells: HEK 293T
# T1 sequence (Q91X05 1-385): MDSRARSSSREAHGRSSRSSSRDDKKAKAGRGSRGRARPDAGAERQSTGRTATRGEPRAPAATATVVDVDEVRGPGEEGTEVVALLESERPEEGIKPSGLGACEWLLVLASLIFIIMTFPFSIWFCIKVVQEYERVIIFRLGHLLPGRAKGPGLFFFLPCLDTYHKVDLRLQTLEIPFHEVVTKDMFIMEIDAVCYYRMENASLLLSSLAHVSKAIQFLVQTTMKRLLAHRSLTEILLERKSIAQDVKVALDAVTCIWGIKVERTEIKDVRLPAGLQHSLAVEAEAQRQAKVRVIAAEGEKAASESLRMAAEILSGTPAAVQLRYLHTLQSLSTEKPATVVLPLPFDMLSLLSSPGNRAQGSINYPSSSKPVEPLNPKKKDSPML
# Method: Photoaffinity labeling. Experiments were performed as described infra. For labeling with [3H]photocholesterol or [3H]photophosphatidylcholine, cells were supplemented with delipidized FCS and [3H]photocholesterol-MBCD complex or 10-azi-stearate and [3H]choline were added. After 16 hours, cells were washed three times with Ca/Mg-PBS (PBS containing 0.1 mM CaCl2 and 1 mM MgCl2) and irradiated for 30 minutes in Ca/Mg-PBS with a 100 W mercury lamp. For further analysis, cells were lysed on ice for 1 h in lysis buffer (50 mM Tris-HCl pH 7.4, 140 mM NaCl, 5 mM EDTA, 0.5 mM phenylmethylsulfonyl fluoride (PMSF), 1% Triton® X-100, 0.5% deoxycholate). The lysate was centrifuged for eight minutes at 10,000×g, and the supernatant was subjected to immunoprecipitation using an anti-FLAG monoclonal antibody. Aliquots of the starting extract, the supernatants after immunoprecipitation and the immunoprecipitates were separated by SDS-PAGE (12%) followed by blotting of the proteins on PVDF membrane. Radioactivity was detected by phosphoimaging (Fujifilm BAS-2500, Fuji Photo Film Co., Ltd, Japan) using a Tritium-sensitive BAS-TR2025 imaging plate (Fuji Photo Film Co., Ltd, Japan). From the same membrane, an immunoblot was performed using anti-FLAG antibodies.
# Cell Culture Studies. Most cell studies used HEK 293T cells that were grown in DMEM as described [Huber et al. (2001) J. Biol. Chem. 18:18]. […]
compound,measurement,setting,value
CC(C)CCC[C@@H](C)[C@H]1CC[C@H]2[C@@H]3CC=C4C[C@@H](O)CC[C@]4(C)[C@H]3CC[C@]12C [cholesterol],rescue of reduced touch sensitivity,[1],dependent on the cholesterol concentration
same,binding of photoactivatable lipid to Podocin,Podocin,bound
